Source: publication doi:10.1101/2024.03.08.583891v2 (biorxiv, 2024)
Like-named read-outs stand apart in the source and are kept apart here.

Tests used:
Test in all cases: tissue or organelle
Details in all cases: read-out: Intrinsec activity %
[1] = target: T1, NMDA receptor histamine site (NMDA(HA)R), native NMDAR of rat hippocampal synaptosomes (Rattus norvegicus, UniProt P35439+Q00960)
[2] = target: T1, NMDA receptor histamine site (NMDA(HA)R), native NMDAR of rat hippocampal synaptosomes; remark: listed apart in the source
[3] = target: T1, NMDA receptor histamine site (NMDA(HA)R), native NMDAR of rat hippocampal synaptosomes; remark: listed apart in the source
[4] = target: T1, NMDA receptor histamine site (NMDA(HA)R), native NMDAR of rat hippocampal synaptosomes; remark: listed apart in the source
[5] = target: T1, NMDA receptor histamine site (NMDA(HA)R), native NMDAR of rat hippocampal synaptosomes; remark: listed apart in the source
[6] = target: T1, NMDA receptor histamine site (NMDA(HA)R), native NMDAR of rat hippocampal synaptosomes; remark: listed apart in the source
[7] = target: T1, NMDA receptor histamine site (NMDA(HA)R), native NMDAR of rat hippocampal synaptosomes; remark: listed apart in the source
[8] = target: T1, NMDA receptor histamine site (NMDA(HA)R), native NMDAR of rat hippocampal synaptosomes; remark: listed apart in the source

T1 sequence (Q00960 27-1482, other chains not shown): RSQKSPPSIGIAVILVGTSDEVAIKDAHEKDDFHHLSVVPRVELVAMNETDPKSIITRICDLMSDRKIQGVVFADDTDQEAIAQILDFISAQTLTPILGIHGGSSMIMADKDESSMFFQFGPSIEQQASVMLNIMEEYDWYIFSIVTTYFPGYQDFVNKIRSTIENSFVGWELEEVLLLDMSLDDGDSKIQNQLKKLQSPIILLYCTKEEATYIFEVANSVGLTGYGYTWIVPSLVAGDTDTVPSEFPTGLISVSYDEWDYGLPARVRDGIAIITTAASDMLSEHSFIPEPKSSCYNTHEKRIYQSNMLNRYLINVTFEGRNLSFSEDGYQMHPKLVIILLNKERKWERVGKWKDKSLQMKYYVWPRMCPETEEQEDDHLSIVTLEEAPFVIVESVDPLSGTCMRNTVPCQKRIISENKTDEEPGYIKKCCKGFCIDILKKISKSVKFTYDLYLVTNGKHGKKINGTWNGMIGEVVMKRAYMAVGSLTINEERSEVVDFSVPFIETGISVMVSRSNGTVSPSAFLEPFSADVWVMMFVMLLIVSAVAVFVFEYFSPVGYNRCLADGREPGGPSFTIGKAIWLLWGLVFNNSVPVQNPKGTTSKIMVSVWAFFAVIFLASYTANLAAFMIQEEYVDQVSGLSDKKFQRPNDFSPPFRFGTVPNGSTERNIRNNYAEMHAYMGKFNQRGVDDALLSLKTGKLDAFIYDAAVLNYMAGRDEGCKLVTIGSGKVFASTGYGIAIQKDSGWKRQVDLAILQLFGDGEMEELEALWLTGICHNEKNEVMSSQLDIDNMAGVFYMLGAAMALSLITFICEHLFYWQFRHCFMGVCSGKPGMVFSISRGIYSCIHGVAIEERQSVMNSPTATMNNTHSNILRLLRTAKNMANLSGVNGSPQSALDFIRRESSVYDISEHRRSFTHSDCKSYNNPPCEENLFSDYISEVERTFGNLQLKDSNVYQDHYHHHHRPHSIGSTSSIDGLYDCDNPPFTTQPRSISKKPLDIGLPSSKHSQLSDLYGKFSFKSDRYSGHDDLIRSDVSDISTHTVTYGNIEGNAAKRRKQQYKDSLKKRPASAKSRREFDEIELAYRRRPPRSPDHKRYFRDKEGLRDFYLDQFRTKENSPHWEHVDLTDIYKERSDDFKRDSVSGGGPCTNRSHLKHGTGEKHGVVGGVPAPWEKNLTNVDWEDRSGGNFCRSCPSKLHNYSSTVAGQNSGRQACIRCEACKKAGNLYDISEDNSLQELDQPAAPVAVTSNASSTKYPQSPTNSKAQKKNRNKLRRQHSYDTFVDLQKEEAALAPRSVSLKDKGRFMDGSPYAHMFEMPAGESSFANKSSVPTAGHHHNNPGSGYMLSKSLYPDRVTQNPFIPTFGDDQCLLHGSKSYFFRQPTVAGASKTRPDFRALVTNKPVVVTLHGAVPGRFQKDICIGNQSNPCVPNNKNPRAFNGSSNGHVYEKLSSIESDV

Nc1nc2ccc(CCNCCCCc3ccccc3)cc2s1 [FUBn293]
Emax [1]: 39%

CC1(C)C(C(=O)c2cn(Cc3ccc(F)cc3)c3ccccc23)C1(C)C [Fub 144]
Emax [2]: 35%

Nc1nc(C2CCC(N)CC2)cs1 (stereo not shown) [Fub 206]
Emax [2]: 40%

Nc1nc(C2CCC(N)CC2)c[se]1 (stereo not shown) [Fub 210]
Emax [2]: 33%

NCCCCCc1csc(N)n1 [Fub 216]
Emax [3]: 20%

Cc1nc(N)sc1CCCCN [Fub 217]
Emax [4]: 52%

NCCCCc1cnc(N)s1 [Fub 218]
Emax [2]: 81%

NCc1ccc2nc(N)sc2c1 [Fub 223]
Emax [5]: 34%

Nc1nc(C2CCCC(N)C2)cs1 (stereo not shown) [Fub 235]
Emax [2]: 38%

Cc1nc(N)sc1CCCCCN [Fub 238]
Emax [4]: 50%

NCCCCCCc1csc(N)n1 [Fub 239]
Emax [3]: 23%

CCc1nc(N)sc1CCN [Fub 240]
Emax [4]: 82%

Cc1sc(N)nc1CCCN [Fub 241]
Emax [3]: 53%

Cc1sc(N)nc1/C=C/CN [Fub 242]
Emax [2]: 75%

NCCc1ccc2nc(N)sc2c1 [Fub 247]
Emax [5]: 48%

Nc1nc2ccc(CCNCC3CCCCC3)cc2s1 [Fub 266]
Emax [6]: 48%

CCNCCc1ccc2nc(N)sc2c1 [Fub 275]
Emax [7]: 15%

CCCNCCc1ccc2nc(N)sc2c1 [Fub 276]
Emax [7]: 15%

Nc1nc2ccc(CCNCCc3ccccc3)cc2s1 [Fub 281]
Emax [6]: 30%

CCCCNCCc1ccc2nc(N)sc2c1 [Fub 286]
Emax [7]: 31%

CCCCCNCCc1ccc2nc(N)sc2c1 [Fub 287]
Emax [7]: 30%

CCCCCCNCCc1ccc2nc(N)sc2c1 [Fub 288]
Emax [7]: 35%

CC(C)(C)NCCc1ccc2nc(N)sc2c1 [Fub 289]
Emax [7]: 23%

CCC(C)(C)NCCc1ccc2nc(N)sc2c1 [Fub 290]
Emax [7]: 27%

CCCC(C)(C)NCCc1ccc2nc(N)sc2c1 [Fub 291]
Emax [7]: 32%

Nc1nc2ccc(CCNCCCc3ccccc3)cc2s1 [Fub 292]
Emax [6]: 32%

NCCCCCc1cnc(N)s1 [Fub 295]
Emax [2]: 41%

NCCCCCCc1cnc(N)s1 [Fub 296]
Emax [2]: 41%

Cc1ccc(CCNCCc2ccc3nc(N)sc3c2)cc1 [Fub 297]
Emax [6]: 32%

COc1ccc(CCNCCc2ccc3nc(N)sc3c2)cc1 [Fub 298]
Emax [6]: 19%

Nc1nc2ccc(CCNCc3ccccc3)cc2s1 [Fub 299]
Emax [6]: 36%

NCCc1ccc2nc(N)[se]c2c1 [Fub 300]
Emax [5]: 45%

CCc1nc(N)sc1CCCN [Fub 301]
Emax [4]: 61%

Cc1sc(N)nc1CCCCN [Fub 302]
Emax [3]: 29%

CCCCCCCNCCc1ccc2nc(N)sc2c1 [Fub 303]
Emax [7]: 33%

CCCCCCCCNCCc1ccc2nc(N)sc2c1 [Fub 304]
Emax [7]: 33%

CCCCCCCCCNCCc1ccc2nc(N)sc2c1 [Fub 305]
Emax [7]: 30%

Nc1nc2ccc(CCNCCCCCc3ccccc3)cc2s1 [Fub 306]
Emax [6]: 33%

Nc1nc2ccc(CCNCCCCCCc3ccccc3)cc2s1 [Fub 307]
Emax [6]: 33%

CCc1nc(N)sc1CCCCN [Fub 309]
Emax [4]: 40%

COc1cc2c(cc1OC)CC(NCC(O)c1ccc(C)cc1)CC2 (stereo not shown) [ST 563]
Emax [7]: 50%

Clc1nc2ccc(CCNCCCCc3ccccc3)cc2s1 [ST 575]
Emax [7]: 40%

Sc1nc2ccc(SCCNCCCCc3ccccc3)cc2s1 [ST 576]
Emax [7]: 38%

CCN(CCc1ccccc1)C1CCc2cc(OC)c(OC)cc2C1 (stereo not shown) [ST 577]
Emax [7]: 25%

COc1ccc(C(O)CNC2CCc3cc(OC)c(OC)cc3C2)cc1 (stereo not shown) [ST 578]
Emax [7]: 30%

CCCNC1CCc2ncsc2C1 (stereo not shown) [ST 581]
Emax [8]: 50%

COc1cc2c(cc1OC)CC(NCC(O)c1ccc(C(F)(F)F)cc1)CC2 (stereo not shown) [ST 590]
Emax [8]: 30%

CCN(CC(O)c1ccc(C(F)(F)F)cc1)C1CCc2cc(OC)c(OC)cc2C1 (stereo not shown) [ST 592]
Emax [8]: 30%

COc1cc2c(cc1OC)CC(NCC(O)c1ccc(F)cc1)CC2 (stereo not shown) [ST 593]
Emax [8]: 25%
